Data reported in patent EP4628084A1, “NAPHTHALENE-DERIVATIVE-BASED THERAPEUTIC DRUG FOR OPHTHA[…]” (Kyoto University, priority 2022, dated 2024).

Tests used:
Assay type in all cases: physicochemical
[1] = Solubility of KUS121 in water; details: at 25°C
[2] = Preliminary experiment: soluble concentration of KUS121 in normal PBS buffer
Method: The maximum dose of KUS121 to the vitreous body of the eye is 50 µg/eye, and the liquid volume that can be administered into the vitreous body is preferably about 100 µL or less. […] In view of these premises and the above-mentioned problems, the present inventors have extensively studied to design an injection formulation of KUS121 in a normal PBS buffer that can be administered into the vitreous body, wherein about 50 µg of KUS121 is dissolved in a normal PBS buffer (about 100 µL), i.e., a formulation that allows a concentration setting of 0.5 mg/mL and matches the osmotic pressure in the vitreous body. As a result, the present inventors have conducted the following trials and then have found the following things: i.e., the present inventors first prepared 1 mL of 0.1 mg/mL KUS121 aqueous solution by dissolving KUS121 in water for injection and then adding a PBS buffer solution with about twice the concentration of normal to the KUS121 solution, in which the PBS concentration is 1/5 of the normal concentration. Then, the prepared KUS121 aqueous solution was lyophilized, and 200 µL (0.2 mL) of water for injection [200 µL (0.2 mL) corresponds to 1/5 the volume before the lyophilization] was added to the lyophilized product. […]

[3] = Solubility of KUS121 in PBS buffer at different temperatures (filtrate quantified by HPLC); details: for solubility of KUS121: detection limit about 1 µg/mL, quantification limit 5 µg/mL; for solubility: PBS buffer solution, aqueous buffer, thermodynamic from solid
Method: A PBS buffer solution comprising 1.6 mg of sodium chloride, 0.229 mg of disodium hydrogen phosphate, 0.04 mg of potassium dihydrogen phosphate, and 0.04 mg of potassium chloride per mL of the solution was prepared, and the temperature of the PBS buffer solution was adjusted to 5°C, 25°C, 40°C, 50°C, and 60°C. KUS121 was added little by little to each solution at the different temperatures and stirred. After stirring for a sufficient time period from the time when some undissolved material appeared, the solution was filtered. As a result of quantifying the filtrate using HPLC, the solubility of KUS121 at each temperature was as follows (detection limit: about 1 µg/mL, quantification limit: 5 µg/mL) .

Which results are given for Cc1cc(F)ccc1-c1ccc(N=Nc2cc(S(=O)(=O)[O-])c3ccccc3c2N)cn1.O.O.[Na+] [KUS121, Sodium 4-amino-3-[6-(4-fluoro-2-methylphenyl)pyridin-3-ylazo]naphthalene-1-sulfonate dihydrate]?
solubility [1]: ~2800 µg/mL; solubility of KUS121 in PBS buffer ([2]; PBS buffer, result in words): extremely low; solubility ([2]; normal PBS buffer solution, aqueous buffer, normal PBS buffer, room temperature, preliminary experiment): ≤ 10 µg/mL; solubility of KUS121 ([3]; 5°C): below detection limit; solubility of KUS121 ([3]; 25°C): below detection limit; solubility ([3]; 40°C): 7 µg/mL; solubility ([3]; 50°C): 47 µg/mL; solubility ([3]; 60°C): 132 µg/mL
